Assay results reported in publication PMC12621043, “Un-LOK-ing a New Approach for Conformational Selective Targeting of STK10 (LOK)” (ACS Medicinal Chemistry Letters, 2025).
Values joined by “and” are separate entries in the source; they are usually repeats but may differ in a detail not shown here. Equal entries are not always repeated. Where two headings read alike, the source gives them in different places.

Assays:
[1] = molecular target: T1, STK10 (Homo sapiens, UniProt O94804); test: Surface plasmon resonance (SPR); assay type: binding; details: 1:1 Langmuir kinetic model, 25 °C
T1 construct: purchased in-house DSF kinase panel (SGC-style construct names; the trailing letter is the construct ID)
T1 sequence (O94804 18-317 limits assumed): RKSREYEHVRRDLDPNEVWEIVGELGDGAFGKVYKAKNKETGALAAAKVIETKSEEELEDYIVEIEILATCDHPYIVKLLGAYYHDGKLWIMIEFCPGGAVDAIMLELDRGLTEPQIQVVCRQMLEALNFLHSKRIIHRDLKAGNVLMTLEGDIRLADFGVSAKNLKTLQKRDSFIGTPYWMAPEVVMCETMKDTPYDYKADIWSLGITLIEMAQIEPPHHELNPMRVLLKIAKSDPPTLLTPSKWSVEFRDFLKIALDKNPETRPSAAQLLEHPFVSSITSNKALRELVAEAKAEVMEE
Description: each well using a multichannel pipette (Eppendorf). Plates were incubated at 37 °C for 1 hour.
For substrate addition, 5 μL of 8 μM AQT0505 peptide was added to each well using the Mantis […]
temperature for an additional hour.
Fluorescence of the SOX-peptide was measured after excitation at 360 nm and emission at 487 nm using a PHERAstar plate reader (BMG Labtech). IC50 values were calculated by nonlinear regression of log[inhibitor] versus normalized response using GraphPad Prism 8 (www.graphpad.com, RRID:SCR_002798).
SPR. Surface plasmon resonance (SPR) experiments were conducted using a Biacore T200 instrument equipped with a Series S Sensor Chip NTA (Cytiva) at 25 °C. His-STK10 was immobilized at a flow rate of 10 µL/min on flow channels (FC) 2 while FC1 served as a blank reference without protein. Nickel loading of the chip was achieved by injecting 500 µM NiCl₂.
To activate the chip surface for covalent coupling, 483 mM EDC and 10 mM NHS were mixed in a 1:1 (v/v) ratio and injected. […]
Compound 23 was measured in duplicates using Multi-Cycle Kinetics, with 10 concentrations ranging from 0.01 µM to 5 μM injected across FC1 and FC2 at 30 µL/min for 150 s. Interaction data was FC1-referenced, blank-subtracted, solvent-corrected, and analyzed using Biacore T200 Evaluation Software version 3.2.1. […]

[2] = molecular target: SLK (Homo sapiens, UniProt Q9H2G2); test: Surface plasmon resonance (SPR); assay type: binding; details: kinetic fit, Figure S3
[3] = molecular target: T1, STK10; details: Figure 1, previous published dual STK10/SLK inhibitors, ref Serafim et al.; read-out: STK10 cellular IC50; cited from earlier work
[4] = molecular target: T1, STK10; details: Figure 1, previous published dual STK10/SLK inhibitors, ref Serafim et al.; read-out: STK10 in vitro IC50; cited from earlier work

## Cc1cc(Cl)ccc1CNC(=O)Nc1ccc2cc1OCCOCCNc1ccn3ncc-2c3n1 [compound 23]
[1]
  Kd: 365 ± 45 nM
[2]
  Kd: 985 ± 855 nM
  Kd SLK (SPR): mainly nonspecific binding

## COc1ccc(CNC(=O)Nc2ccc3cc2OCCOCCNc2ccn4ncc-3c4n2)cc1 [compound 31]
[3]
  IC50: > 1000 nM and 1400 nM
[4]
  IC50: 12 nM
